Assay results taken from PubChem BioAssay (NCI).
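Briefly, cells in 96-well plates were exposed to five compound concentrations for 48 h, and endpoints were estimated by linear interpolation. GI50 is the concentration that inhibits growth by half. TGI marks complete inhibition of growth.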

Tests used:
Assay in all cases: NCI tumour cell line growth inhibition, 48 h
[1] = test system: HCC-2998 colon
[2] = test system: OVCAR-5 ovarian
[3] = test system: DLD-1 colon
[4] = test system: K-562 leukemia
[5] = test system: 786-0 renal
[6] = test system: SNB-78 CNS
[7] = test system: SK-MEL-2 melanoma
[8] = test system: ACHN renal
[9] = test system: OVCAR-4 ovarian
[10] = test system: EKVX NSCLC
[11] = test system: SNB-75 CNS
[12] = test system: NCI-H522 lung
[13] = test system: KM20L2 colon
[14] = test system: M19-MEL melanoma
[15] = test system: M14 melanoma
[16] = test system: HT29 colon
[17] = test system: SF-539 CNS
[18] = test system: LXFL 529 NSCLC
[19] = test system: SK-MEL-28 melanoma
[20] = test system: MALME-3M melanoma
[21] = test system: UO-31 renal
[22] = test system: NCI-H460 lung
[23] = test system: RPMI-8226 leukemia
[24] = test system: HCT-116 colon
[25] = test system: NCI-H226 lung
[26] = test system: SF-268 CNS
[27] = test system: LOX IMVI melanoma
[28] = test system: U251 CNS
[29] = test system: XF 498 CNS
[30] = test system: TK-10 renal
[31] = test system: CAKI-1 renal
[32] = test system: SNB-19 CNS
[33] = test system: HCT-15 colon
[34] = test system: SW-620 colon
[35] = test system: COLO 205 colon
[36] = test system: CCRF-CEM leukemia
[37] = test system: RXF 393 renal
[38] = test system: KM12 colon
[39] = test system: OVCAR-8 ovarian
[40] = test system: SK-MEL-5 melanoma
[41] = test system: HOP-92 NSCLC
[42] = test system: UACC-62 melanoma
[43] = test system: SN12C renal
[44] = test system: NCI-H23 lung
[45] = test system: HOP-62 NSCLC
[46] = test system: UACC-257 melanoma
[47] = test system: A549 NSCLC
[48] = test system: SF-295 CNS
[49] = test system: DMS 114 small cell lung
[50] = test system: OVCAR-3 ovarian
[51] = test system: MOLT-4 leukemia
[52] = test system: IGROV1 ovarian
[53] = test system: A498 renal
[54] = test system: DMS 273 small cell lung
[55] = test system: SK-OV-3 ovarian
[56] = test system: HL-60(TB) leukemia
[57] = test system: HOP-18 NSCLC
[58] = test system: SR leukemia

O=C(NC(=Nc1ccccc1)SCCSC(=Nc1ccccc1)NC(=O)c1ccccc1)c1ccccc1
TGI [1]: > 100 µM
TGI [2]: > 100 µM
TGI [3]: > 100 µM
TGI [4]: > 100 µM
TGI [5]: > 100 µM
TGI [6]: > 100 µM
TGI [7]: > 100 µM
TGI [8]: > 100 µM
TGI [9]: > 100 µM
TGI [10]: > 100 µM
TGI [11]: > 100 µM
TGI [12]: 73 µM
TGI [13]: > 100 µM
TGI [14]: > 100 µM
TGI [15]: > 100 µM
TGI [16]: > 100 µM
TGI [17]: > 100 µM
TGI [18]: > 100 µM
TGI [19]: > 100 µM
TGI [20]: > 100 µM
TGI [21]: 88.2 µM
TGI [22]: > 100 µM
TGI [23]: > 100 µM
TGI [24]: > 100 µM
TGI [25]: > 100 µM
TGI [26]: > 100 µM
TGI [27]: > 100 µM
TGI [28]: > 100 µM
TGI [29]: > 100 µM
TGI [30]: > 100 µM
TGI [31]: > 100 µM
TGI [32]: > 100 µM
TGI [33]: > 100 µM
TGI [34]: > 100 µM
TGI [35]: > 100 µM
TGI [36]: > 100 µM
TGI [37]: 95.6 µM
TGI [38]: > 100 µM
TGI [39]: > 100 µM
TGI [40]: > 100 µM
TGI [41]: 58.7 µM
TGI [42]: > 100 µM
TGI [43]: > 100 µM
TGI [44]: > 100 µM
TGI [45]: > 100 µM
TGI [46]: > 100 µM
TGI [47]: > 100 µM
TGI [48]: > 100 µM
TGI [49]: > 100 µM
TGI [50]: > 100 µM
TGI [51]: > 100 µM
TGI [52]: > 100 µM
TGI [53]: > 100 µM
TGI [54]: > 100 µM

CC(=O)[O-].O=C([CH-]C(=O)c1ccccc1)c1ccccc1.O=C([CH-]C(=O)c1ccccc1)c1ccccc1.[Dy+3]
GI50 [1]: 11.6 µM
TGI [1]: 36.2 µM
GI50 [2]: 34.9 µM
TGI [2]: > 100 µM
GI50 [4]: 3.55 µM
TGI [4]: 17.8 µM
GI50 [5]: 12 µM
TGI [5]: 35.9 µM
GI50 [7]: 14.9 µM
TGI [7]: 37.4 µM
GI50 [8]: 14.3 µM
TGI [8]: > 100 µM
GI50 [9]: 16.5 µM
TGI [9]: > 100 µM
GI50 [10]: 9.62 µM
TGI [10]: 42.6 µM
GI50 [11]: 3.33 µM
TGI [11]: 8.46 µM
GI50 [12]: 10.4 µM
TGI [12]: 36.9 µM
GI50 [13]: 12.9 µM
TGI [13]: 44.7 µM
GI50 [15]: 15.9 µM
TGI [15]: 36 µM
GI50 [16]: 11.3 µM
TGI [16]: 26.2 µM
GI50 [17]: 18.9 µM
TGI [17]: 56.1 µM
GI50 [19]: 15.4 µM
TGI [19]: 51.4 µM
GI50 [20]: 21.8 µM
TGI [20]: 67.9 µM
GI50 [21]: 8.35 µM
TGI [21]: 32.5 µM
GI50 [22]: 6.66 µM
TGI [22]: > 100 µM
GI50 [23]: 7.87 µM
TGI [23]: 34.7 µM
GI50 [24]: 5.75 µM
TGI [24]: 23.1 µM
GI50 [25]: 3.79 µM
TGI [25]: 15.6 µM
GI50 [26]: 10.4 µM
TGI [26]: 56.4 µM
GI50 [55]: 16.9 µM
TGI [55]: 61.5 µM
GI50 [27]: 12.4 µM
TGI [27]: 30.9 µM
GI50 [28]: 11.9 µM
TGI [28]: > 100 µM
GI50 [30]: 27.4 µM
TGI [30]: 86.5 µM
GI50 [31]: 17 µM
TGI [31]: 50.3 µM
GI50 [56]: 2.84 µM
TGI [56]: 11.5 µM
GI50 [32]: 14.8 µM
TGI [32]: 70.3 µM
GI50 [34]: 7.27 µM
TGI [34]: > 100 µM
GI50 [35]: 15.3 µM
TGI [35]: 34.1 µM
GI50 [37]: 6.84 µM
TGI [37]: 34.7 µM
GI50 [38]: 21 µM
TGI [38]: > 100 µM
GI50 [39]: 4.78 µM
TGI [39]: 36.5 µM
GI50 [40]: 6.5 µM
TGI [40]: 20.9 µM
GI50 [41]: 18.8 µM
TGI [41]: 43.9 µM
GI50 [42]: 9.15 µM
TGI [42]: 48.1 µM
GI50 [43]: 11.9 µM
TGI [43]: 59.5 µM
GI50 [44]: 9.36 µM
TGI [44]: 37 µM
GI50 [45]: 6.91 µM
TGI [45]: 31.9 µM
GI50 [46]: 15.6 µM
TGI [46]: 40.4 µM
GI50 [47]: 18 µM
TGI [47]: 51.2 µM
GI50 [48]: 7.73 µM
TGI [48]: 28.8 µM
GI50 [50]: 13.9 µM
TGI [50]: 51.8 µM
GI50 [51]: 4.59 µM
TGI [51]: 31.9 µM
GI50 [52]: 18.5 µM
TGI [52]: 93.8 µM
GI50 [53]: 15.5 µM
TGI [53]: 61.5 µM

CC1(C)OC(COP2OCCO2)[C@H](COP2OCCO2)O1 (some centres undefined)
TGI [4]: > 100 µM
TGI [6]: > 100 µM
TGI [7]: > 100 µM
TGI [8]: > 100 µM
TGI [9]: > 100 µM
TGI [11]: > 100 µM
TGI [14]: > 100 µM
TGI [15]: > 100 µM
TGI [16]: > 100 µM
TGI [17]: > 100 µM
TGI [18]: > 100 µM
TGI [19]: > 100 µM
TGI [20]: > 100 µM
TGI [57]: > 100 µM
TGI [22]: > 100 µM
TGI [24]: > 100 µM
TGI [25]: > 100 µM
TGI [26]: > 100 µM
TGI [27]: > 100 µM
TGI [30]: > 100 µM
TGI [56]: > 100 µM
TGI [33]: > 100 µM
TGI [34]: > 100 µM
TGI [36]: > 100 µM
TGI [37]: > 100 µM
TGI [38]: > 100 µM
TGI [39]: > 100 µM
TGI [40]: > 100 µM
TGI [42]: > 100 µM
TGI [43]: > 100 µM
TGI [44]: > 100 µM
TGI [46]: > 100 µM
TGI [47]: > 100 µM
TGI [48]: > 100 µM
TGI [49]: > 100 µM
TGI [50]: > 100 µM
TGI [51]: > 100 µM
TGI [52]: > 100 µM
TGI [53]: > 100 µM
TGI [54]: > 100 µM

COc1cc2c(cc1O)CCN[C@@]21CS[C@H]2c3c(OC(C)=O)c(C)c4c(c3C(COC1=O)N1C2C2NC(Cc3cc(C)c(OC)c(O)c32)[C@@H]1C#N)OCO4 (some centres undefined)
TGI [1]: < 0.01 µM
TGI [3]: 0.271 µM
TGI [5]: 0.162 µM
TGI [7]: < 0.01 µM
TGI [8]: 0.721 µM
TGI [9]: < 0.01 µM
TGI [10]: 0.125 µM
TGI [11]: < 0.01 µM
TGI [13]: < 0.01 µM
TGI [14]: < 0.01 µM
TGI [15]: < 0.01 µM
TGI [16]: 0.16 µM
TGI [17]: < 0.01 µM
TGI [18]: 0.111 µM
TGI [19]: 0.0268 µM
TGI [20]: < 0.01 µM
TGI [23]: 0.017 µM
TGI [24]: 1.14 µM
TGI [25]: < 0.01 µM
TGI [26]: 0.104 µM
TGI [28]: 0.444 µM
TGI [29]: < 0.01 µM
TGI [30]: 61 µM
TGI [58]: > 100 µM
TGI [56]: 0.0209 µM
TGI [32]: 1.87 µM
TGI [34]: 1.06 µM
TGI [36]: 0.0525 µM
TGI [37]: < 0.01 µM
TGI [40]: < 0.01 µM
TGI [42]: < 0.01 µM
TGI [43]: 0.115 µM
TGI [44]: < 0.01 µM
TGI [45]: 0.0107 µM
TGI [49]: < 0.01 µM
TGI [51]: < 0.01 µM
